From patent publication US12241902B2, “Probes for detection of copper” (The Regents of the University of California, priority 2019, dated 2025)
Several values for one entry are separate records, joined by “and”; a condition that tells them apart may be missing. Equal values may be shown once.

Key:
[1] = UV-vis absorption and emission measurements in aqueous buffer; format: physicochemical; conditions: for molar extinction coefficient: PBS, glutathione 2 mM, PEG-400 40% v/v
Protocol: UV-vis absorption and emission measurements. FCP-1 stock solution in DMSO (5 mM) was prepared, aliquoted and stored at […]. For each spectroscopic measurement, a fresh aliquot was diluted to 500 μM by DMSO and further diluted with PBS containing 2 mM GSH/PEG-400 mixture (3:2, v/v) to prepare the sensing solution with 5 μM of FCP-1. The sensing solution was pre-incubated in a water bath at 37° C., and then [Cu(CH3CN)](PF6) in MeCN or other metal ions in H2O was added. The solution mixture was kept at 37° C. and taken out for UV-vis absorption or emission spectroscopic measurements in quartz cuvette at predetermined time intervals. Emission spectra were corrected using coumarin 153 as secondary emission standard (4). Photoluminescence quantum yield (PLQY) was determined using fluorescein in 0.1 M NaOH solution (0.95; λex=496 nm). FRET efficiency from the fluorescein moiety to rhodamine moiety of FCP-1 was estimated by [1−(PLQY of FCP-1/PLQY of FL-TPA)].
FCP-1 in PBS buffer containing glutathione (2 mM) and PEG-400 (40%, v/v) was evaluated. […] The first two absorption maxima corresponded to the absorption of the fluorescein moiety, as similar absorption maxima at 460 and 489 nm were found in the absorption spectra of FL-TPA (FIG. 4), whereas the lowest energy absorption at 552 nm originated from the rhodamine moiety (FIG. 4). […] Together with the significant contribution of the lower-energy fluorescence from the excitation at 450-500 nm, which is in the region of FL-TPA absorption (FIG. 6), the data support the occurrence of FRET from the fluorescein donor to the rhodamine acceptor. Using FL-TPA as a reference FRET donor compound (FIG. 7) with assumption that quenching of donor fluorescence originated only from the FRET process, the FRET efficiency in the FCP-1 cassette is estimated to be 84%.

[2] = test system: labile Cu(I) in Ctr1^+/+ MEFs; assay: Confocal fluorescence imaging of labile Cu(I) in Ctr1+/+ MEFs; format: cell-based, mouse
Protocol: (A) Confocal fluorescence microscopy images of Ctr1^+/+ MEFs and Ctr1^−/− MEFs treated with solvent control, CuCl2 (100 or 300 μM) or BCS (500 μM) in complete medium for 8 h, washed with complete medium and PBS, incubated with FCP-1 (5 μM) in DPBS for 45 min, and then imaged with λex=458 nm. (B) Average cellular ratiometric emission ratios of FCP-1, Fgreen/Forange, as determined from experiments performed in triplicate. (C) Total cellular ^63Cu levels were determined by ICP-MS experiments (with normalization of different cell numbers by total cellular ^31P level). (D) Confocal fluorescence microscopy images of Ctr1^+/+ MEFs and Ctr1^−/− MEFs incubated with FL-TPA (5 μM) in DPBS for 45 min. The cells were then imaged with λex=488 nm. (E) Average cellular fluorescence intensity of FL-TPA, FFL-TPA, determined from experiments performed in triplicate with λex=488 nm. Error bars denote SD (n=3). *p<0.05, **p<0.01 and ***p<0.001.
Cell culture. Following cell cultures were grown: Human embryonic kidney (HEK 293T) cells were maintained in Dulbecco's Modified Eagle Medium (DMEM) supplemented with 10 vol % fetal bovine serum (FBS), 1 vol % GlutaMax (Gibco) and 1 vol % non-essential amino acids (NEAA, Gibco). Ctrl1^+/+ and Ctr1^−/− MEF cells were maintained in DMEM with 10 vol % FBS, 1 vol % non-essential amino acids, 1 vol % sodium pyruvate and 0.1 vol % 2-mercaptoethanol or DMEM supplemented with 10 vol % FBS and 1× Penicillin-Streptomycin. Human cervical epithelial carcinoma (HeLa) was maintained in DMEM medium supplemented with 1 vol % GlutaMAX and 10 vol % FBS. All cells were incubated in 5% CO2 humidified air and subcultured at 80% confluence.
Confocal fluorescence microscopy imaging. For confocal fluorescence imaging experiments of HEK293T, MEF Ctr1^+/+ and Ctr1^−/− and HeLa cells, the cells were plated on 8-well Lab Tek borosilicate chambered coverglass slides (Nunc), and allowed to grow to ca. 60% confluency before performing the cell imaging experiments. The confocal imaging was performed with a Zeiss laser scanning microscope 710 with 20× or 63× oil-immersion objective lens using Zen 2009 software (Carl Zeiss). FCP-1 was excited with 458 nm with an Ar laser, and the emissions were collected using a META detector between 465 and 541 nm (Fgreen), and between 559 and 710 nm (Forange). DRAQ-5 was excited with a 633 nm He Ne laser, and its emission was collected using a META detector between 661 and 759 nm. Image analysis was performed using ImageJ, with ratiometric images generated by the Ratio Plus plugin of ImageJ. For quantification, a threshold value was set as background and the average intensity of the whole image was measured by ImageJ. All experiments were performed in triplicate, and statistical analyses were performed with a two-tailed Student's t-test (MS excel).
Having established that FCP-1 is sensitive to endogenous pools of labile Cu(I) under basal conditions and can respond to changes in labile Cu(I) pools upon pharmacological copper supplementation and/or depletion, the application of FCP-1 to visualize alterations in endogenous labile Cu(I) pools through genetic manipulation was explored. To this end, comparative FCP-1 imaging was performed in mouse embryonic fibroblast cells that are either Cu-replete (Ctr1^+/+ MEFs) or Cu-deficient (Ctr1^−/− MEFs) through knockout of the high-affinity copper transporter CTR1 (64-66).
Complementary ICP-MS measurements confirm that total copper levels in Ctr1^−/− MEFs are lower than Ctr1^+/+ MEFs (FIG. 12C). […]

FRET efficiency ([1]; FL-TPA as reference FRET donor, 1−(PLQY of FCP-1/PLQY of FL-TPA)): 84% | absorption maxima ([1]; PBS buffer containing glutathione (2 mM) and PEG-400 (40%, v/v)): 465 nm and 493 nm and 552 nm | molar extinction coefficient ([1]; at 465 nm): 20,000 M^−1 cm^−1 | molar extinction coefficient ([1]; at 493 nm): 22,100 M^−1 cm^−1 | molar extinction coefficient ([1]; at 552 nm): 40,000 M^−1 cm^−1 | emission wavelength ([1]; photoexcitation at 458 nm): 526 nm and 576 nm
SMILES: CC[N+](CC)=c1ccc2c(-c3ccccc3C(=O)O)c3ccc(N4CCN(Cc5cccc(CN(Cc6ccccn6)Cc6cccc(COc7ccc8c(-c9ccccc9C(=O)OC)c9ccc(=O)cc-9oc8c7)n6)n5)CC4)cc3oc-2c1 [FCP-1]
cellular viability by nuclear stain DRAQ5 ([2]; Ctr1+/+ MEFs (FIG. 13)): cellular viability was maintained | Fgreen/Forange ratio after BCS ([2]; Ctr1+/+ MEFs, BCS): reduction in Fgreen/Forange ratio | Fgreen/Forange ratio after CuCl2 ([2]; Ctr1+/+ MEFs, varying concentrations of CuCl2): dose-dependent increase | Fgreen/Forange ratio, Ctr1+/+ MEFs compared to Ctr1−/− MEFs ([2]; basal, FCP-1 5 μM, p<0.01): higher Fgreen/Forange ratios
